The target of experiment [1] is T1, CXCR3 (Homo sapiens, UniProt P49682).
T1 sequence (P49682 1-368): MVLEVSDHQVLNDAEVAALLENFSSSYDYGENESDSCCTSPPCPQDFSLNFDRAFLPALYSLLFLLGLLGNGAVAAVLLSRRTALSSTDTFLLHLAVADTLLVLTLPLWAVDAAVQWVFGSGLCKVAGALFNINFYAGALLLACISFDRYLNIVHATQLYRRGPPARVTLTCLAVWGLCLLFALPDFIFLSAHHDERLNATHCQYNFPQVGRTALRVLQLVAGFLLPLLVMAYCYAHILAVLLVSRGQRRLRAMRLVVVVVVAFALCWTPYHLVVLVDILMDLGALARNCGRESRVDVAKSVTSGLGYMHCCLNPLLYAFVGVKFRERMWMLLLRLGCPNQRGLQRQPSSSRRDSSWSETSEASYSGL
Kind of experiment: Chemotaxis assay IP10, L1.2 recombinant cells expressing hCXCR3. The class given is cell-based. The settings on record: L1.2 hCXCR3 cells, IP10 around 0.3 nM, 4 hours.

Experiment [2] has as its target T1, CXCR3. The experiment in a line: Radioligand binding, scintillation proximity assay ([125I]IP-10 or [125I]I-TAC competition) on CHO-CXCR3 cell membranes. Further details: host or cells: CHO cells stably expressing hCXCR3. Conditions: [125I]IP-10, human CXCR3 cell membranes, Cheng-Prusoff; read-out: Binding Ki (μM) IP10. On the procedure:
Human chinese hamster ovary (CHO) cell line stably expressing hCXCR3 was purchased from Euroscreen (Belgium) and culture in HAM's F12 (Invitrogen) containing 10% heat inactivated fetal calf serum (Cancerra, Australia), 50 units ml−1 penicillin, 50 μml−1 streptomycin, (Invitrogen, USA) and 400 μg/ml geneticin (G418) (Calbiochem, San Diego), according to the manufacturer.
CHO cells expressing the human CXCR3 were disrupted by nitrogen cavitation (Parr Instruments, USA) at 4° C., 800 p.s.i. for 30 min in 50 mM Tris-HCl pH 7.5, 2 mM EDTA, 250 mM Sucrose and protease inhibitors (Roche). Cell membranes were prepared by differential centrifugation (200×g for 10 min, then 100000×g for 60 min). Membranes pellets were re-suspended in 50 mM Tris-HCL pH 7.4, 1 mM EDTA, 10 mM MgCl2, 250 mM sucrose and inhibitor of proteases. Purified CHO-CXCR3 cell membranes were frozen in liquid nitrogen and stored at −80° C.
A scintillation proximity assay was used for radioligand competition and saturation binding assays. For each assay point, 1 to 5 μg of human CXCR3 cell membranes were incubated in a final volume of 100 μl in 96 well plates (Corning, USA) for 120 minutes with shaking at room temperature in presence of 100 μg of wheat germ agglutinin-coated scintillation proximity assay beads (WGA-SPA, RPNQ0001, GE Healthcare), 0.05-0.1 nM [125I]I-TAC (Perkin Elmer, 1366Cie/mmol) or 0.1 nM [125I]IP-10 (Perkin Elmer, 2200 Cie/mmol) in binding buffer (50 mM HEPES/KOH pH 7.4, 10 mM MgCl2, 1 mM CaCl2, 0.1% bovine serum albumin (BSA), 100 mM NaCl with protease inhibitor cocktail tablets (Roche). Assay was performed in presence of 1% dimethylsulphoxide (Me2SO). Binding activity was determined using a 1450 Micro-beta scintillation counter (Wallac, UK). Ki values were calculated using the Cheng-Prusoff equation (Cheng and Prusoff, 1973) and represent the average of at least three independent dose response experiments.
A general note: Scintillation proximity formats need no separation of bound from free tracer.

For experiment [3], the target named is T1, CXCR3. Kind of experiment: CXCR3 Ca2+ mobilization (FLIPR), stable hCXCR3-CHO cell line, I-TAC stimulated. Type of experiment: cell-based. More on the design: host or cells: CHO cells stably expressing hCXCR3. The settings on record: hCXCR3-CHO cells, I-TAC 100 nM stimulated Ca2+ response; read-out: Ca-ITAC. In short, it runs like this: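 Ca2+ mobilization triggered by I-TAC (100 nM) measured by FLIPR in a stable hCXCR3-CHO line. Dye-loaded (60 min) cells preincubated with compounds 20 minutes at room temperature; antagonism given relative to the compound-free I-TAC signal set at 100%.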
A general note: A change in cytosolic calcium serves as a functional read-out for many receptors and channels.

In experiment [4] the target is T1, CXCR3. Kind of experiment: Chemotaxis assay ITAC (CXCL11), L1.2-CXCR3 cells. Type of experiment: cell-based. Further details: expressed in transfected cells. The settings on record: 1 nM CXCL11 (I-TAC), 4 hours. Summed up:
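Murine pre-B L1.2 cells stably expressing human CXCR3, pretreated 24 h with 5 mM butyric acid, preincubated with compound 30 min at 37 °C in 1% DMSO. Migration toward 1 nM CXCL11 (also with compound) through 8 μm filters for 4 h at 37 °C; migrated cells counted with CyQuant GR dye.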

A word on the Ki: it is a measure of affinity in units of concentration, obtained from inhibition or displacement. As for `O=C(NCC1CC1)c1ccc(CN(Cc2ccccn2)S(=O)(=O)c2ccc(Cl)cc2)cc1` [Example 5, 4-{[[(4-chlorophenyl)sulfonyl](pyridin-2-ylmethyl)amino]methyl}-N-(cyclopropylmethyl)benzamide], on CXCR3 [1], the IC50 was determined as 0.2 µM. Moreover, at CXCR3 [2], the Ki was determined as 0.168 µM.
The like results for `O=C(NCc1cccs1)c1ccc(CN(Cc2ccccc2)S(=O)(=O)c2ccc(Cl)cc2)cc1` [Example 7, 4-({benzyl[(4-chlorophenyl)sulfonyl]amino}methyl)-N-(2-thienylmethyl)benzamide] were, in that order, 0.192 µM and 0.299 µM.
Turning to `CCOc1ccc(S(=O)(=O)N(Cc2ccccc2)Cc2ccc(C(=O)NCc3ccccc3)cc2)cc1` [Example 33], the Ki at CXCR3 [2] turned out to be 0.197 µM. At CXCR3 [3], the IC50 is 530 nM.
In the case of `O=S(=O)(c1ccc(Cl)cc1)N(Cc1ccc(-c2nnn[nH]2)cc1)Cc1ccccn1` [Example 16, 4-chloro-N-(pyridin-2-ylmethyl)-N-[4-(1H-tetrazol-5-yl)benzyl]benzenesulfonamide], the IC50 at CXCR3 [1] amounted to 0.496 µM. Moreover, the Ki on CXCR3 [2] is 0.092 µM.
In the case of `O=C(NC1(c2ccccc2)CC1)c1ccc(CN(Cc2ccccn2)S(=O)(=O)c2ccc(Cl)cc2)cc1` [Example 40, 4-{[(4-Chloro-benzenesulfonyl)-pyridin-2-ylmethyl-amino]-methyl}-N-(1-phenyl-cyclopropyl)-benzamide], the IC50 on CXCR3 [1] was determined as 0.025 µM; against CXCR3 [4], 53 nM; on CXCR3 [3], 90 nM. For the same compound, the Ki at CXCR3 [2] is 0.015 µM.
As for `O=C(NS(=O)(=O)Cc1ccccc1)c1ccc(CN(Cc2ccccn2)S(=O)(=O)c2ccc(Cl)cc2)cc1` [Example 11, N-(benzylsulfonyl)-4-{[[(4-chlorophenyl)sulfonyl](pyridin-2-ylmethyl)amino]methyl}benzamide], the IC50 at CXCR3 [1] came out at 0.404 µM. In addition, the Ki at CXCR3 [2] was 0.1 µM.
On the same counts, the results for `O=C(NS(=O)(=O)c1cccc(Cl)c1)c1ccc(CN(Cc2ccccc2)S(=O)(=O)c2ccc(Cl)cc2)cc1` [Example 12, N-[(3-chlorophenyl)sulfonyl]-4-{[benzyl[(4-chlorophenyl)sulfonyl]amino]methyl}benzamide] are 0.865 µM and 1.65 µM.
On CXCR3 [4], `CCOc1ccc(S(=O)(=O)N(Cc2ccccc2)Cc2ccc(C(=O)NCC3CC3)cc2)cc1` [Example 18, 4-{[Benzyl-(4-ethoxy-benzenesulfonyl)-amino]-methyl}-N-cyclopropylmethylbenzamide] came in with an IC50 of 1680 nM. On CXCR3 [2], the Ki was 0.78 µM.
For `O=C(NC1(c2ccccc2)CC1)c1ccc(CN(Cc2ccccc2)S(=O)(=O)c2ccc(Cl)cc2)cc1` [Example 10, 4-({benzyl[(4-chlorophenyl)sulfonyl]amino}methyl)-N-(1-phenylcyclopropyl)benzamide], the IC50 at CXCR3 [1] worked out at 0.238 µM. Further, the Ki on CXCR3 [2] worked out at 0.155 µM.
With `O=C(NS(=O)(=O)c1cccc(Cl)c1)c1ccc(CN(Cc2ccccn2)S(=O)(=O)c2ccc(Cl)cc2)cc1` [Example 13, N-[(3-chlorophenyl)sulfonyl]-4{[[(4-chlorophenyl)sulfonyl](pyridin-2-ylmethyl)amino]methyl}benzamide], the IC50 on CXCR3 [1] is 0.138 µM. Also, the Ki on CXCR3 [2] stood at 0.066 µM.
Turning to `N#Cc1ccc(S(=O)(=O)N(Cc2ccc(C(=O)NC3(c4ccccc4)CC3)cc2)Cc2ccccn2)cc1` [Example 44], the values for the IC50 at CXCR3 [1], against CXCR3 [4] and on CXCR3 [3] were 0.013 µM, 33 nM and 268 nM, respectively. Besides, the inhibition constant (Ki) at CXCR3 [2] is 0.01 µM.
As for `CCOc1ccc(S(=O)(=O)N(Cc2ccc(-c3nnn[nH]3)cc2)Cc2ccccn2)cc1` [Example 42, 4-Ethoxy-N-(pyridin-2-ylmethyl)-N-[4-(2H-tetrazol-5-yl)benzyl]benzenesulfonamide], the IC50 against CXCR3 [4] was 1040 nM; on CXCR3 [3] it was 520 nM. Moreover, the inhibition constant Ki on CXCR3 [2] turned out to be 0.161 µM.
`O=C(NCc1cccc(Cl)c1)c1ccc(CN(Cc2ccccc2)S(=O)(=O)c2ccc(Cl)cc2)nc1` [Example 8, 6-({benzyl[(4-chlorophenyl)sulfonyl]amino}methyl)-N-(3-chlorobenzyl)nicotinamide]: the IC50 at CXCR3 [1] was determined as 0.369 µM. Moreover, the Ki at CXCR3 [2] amounted to 0.64 µM.
As to `O=C(NCc1cccc(Cl)c1)c1ccc(CN(Cc2ccccn2)S(=O)(=O)c2ccc(Cl)cc2)cc1` [Example 6, N-(3-chlorobenzyl)-4-{[[(4-chlorophenyl)sulfonyl](pyridin-2-ylmethyl)amino]methyl}benzamide], the Ki on CXCR3 [2] amounted to 0.123 µM.

Source of the values: patent publication US20110028509A1, “Sulfonamides” (MERCK SERONO SA, priority 2008, published 2011).
